Experimental data published in EPA's ToxRefDB 2.

Columns and labels:
[1] = test system: rat; conditions: Sub-acute repeat dose toxicity; Oral; Gavage/Intubation; dose end: 10 day; group: systemic; systemic / in life observation / clinical signs / compulsive biting or licking + systemic / in life observation / clinical signs / …
[2] = test system: dog; conditions: Sub-acute repeat dose toxicity, beagle, Oral, Gavage/Intubation, dose end: 10 day, group: systemic
[3] = test system: dog; conditions: Sub-acute repeat dose toxicity, beagle, Oral, Gavage/Intubation, dose end: 7 day, group: systemic
[4] = test system: rat; conditions: Sub-acute repeat dose toxicity, sprague dawley, Oral, Gavage/Intubation, dose end: 13 day, group: systemic
[5] = test system: dog; conditions: Sub-acute repeat dose toxicity; beagle; Oral; Gavage/Intubation; dose end: 29 day; group: systemic; systemic / in life observation / clinical signs / defecation (diarrhea) + systemic / in life observation / clinical signs / emesis + …
[6] = test system: rat; conditions: Sub-acute repeat dose toxicity, sprague dawley, Oral, Gavage/Intubation, dose end: 29 day, group: systemic
[7] = test system: dog; conditions: Sub-acute repeat dose toxicity, beagle, Oral, Gavage/Intubation, dose end: 1 month, group: systemic
[8] = test system: rat; conditions: Carcinogenicity, fischer, Oral, Gavage/Intubation, dose end: 103 week, group: systemic
[9] = test system: mouse; conditions: Subchronic oral toxicity in rodents, b6c3f1, Gavage/Intubation, dose end: 13 week, group: systemic
[10] = test system: rat; conditions: Subchronic oral toxicity in rodents, fischer, Gavage/Intubation, dose end: 13 week, group: systemic
[11] = test system: mouse; conditions: Chronic toxicity, [Not Reported], Oral, Feed, dose end: 104 week, group: systemic
[12] = test system: rat; conditions: Chronic toxicity; fischer; Oral; Feed; dose end: 130 week; group: systemic; systemic / pathology microscopic / liver / hypertrophy + systemic / pathology microscopic / liver / necrosis
[13] = test system: rat; conditions: Developmental neurotoxicity study, sprague dawley, Oral, Gavage/Intubation, dose end: 80 PND, group: cannot be grouped
[14] = test system: dog; conditions: Chronic toxicity; beagle; Oral; Feed; dose end: 52 week; group: systemic; systemic / clinical chemistry / cholesterol / cholesterol + systemic / clinical chemistry / cytochrome p450, nos / cytochrome p450, nos
[15] = test system: rat; conditions: Multigenerational reproductive toxicity study, wistar, Oral, Feed, dose end: 2 generation
[16] = test system: rabbit; conditions: Prenatal developmental toxicity study, chinchilla, Oral, Gavage/Intubation, dose end: 18 GD
[17] = test system: rat; conditions: Combined chronic toxicity/carcinogenicity, wistar, Oral, Feed, dose end: 24 month, group: systemic
[18] = test system: mouse; conditions: Carcinogenicity, b6c3f1, Oral, Feed, dose end: 24 month, group: systemic
[19] = test system: rat; conditions: Prenatal developmental toxicity study, other, Oral, Gavage/Intubation, dose end: 15 GD
[20] = test system: dog; conditions: Other (NonGuideline or Guideline Not Listed); beagle; Oral; Capsule; dose end: 3 day; group: cannot be grouped; systemic / in life observation / clinical signs / emesis
[21] = test system: dog; conditions: Sub-acute repeat dose toxicity, beagle, Oral, Capsule, dose end: 5 week, group: systemic
[22] = test system: rat; conditions: Subchronic oral toxicity in rodents, sprague dawley, Feed, dose end: 13 week, group: systemic, systemic / organ weight / uterus / relative to body weight
[23] = test system: dog; conditions: Subchronic oral toxicity in nonrodent, beagle, Feed, dose end: 14 week, group: systemic, systemic / organ weight / liver / absolute + systemic / organ weight / liver / relative to body weight
[24] = systemic / in life observation / body weight / body weight + systemic / in life observation / clinical signs / altered breathing rate + …
[25] = systemic / in life observation / clinical signs / salivation + systemic / in life observation / clinical signs / emesis
[26] = systemic / in life observation / body weight / body weight + systemic / in life observation / food consumption / food consumption + systemic…
[27] = systemic / in life observation / clinical signs / emesis
[28] = systemic / in life observation / body weight / body weight + systemic / in life observation / clinical signs / lacrimation + systemic / in …
[29] = systemic / organ weight / kidney / absolute + systemic / organ weight / liver / absolute + systemic / organ weight / spleen / absolute + …
[30] = systemic / in life observation / clinical signs / salivation + systemic / organ weight / liver / absolute + systemic / in life observation…
[31] = systemic / in life observation / clinical signs / defecation (diarrhea) + systemic / in life observation / clinical signs / feces, …
[32] = systemic / in life observation / clinical signs / feces, discoloration
[33] = systemic / pathology microscopic / kidney / hyperplasia + systemic / pathology microscopic / kidney / nephropathy
[34] = systemic / pathology microscopic / kidney / hyperplasia + systemic / pathology microscopic / kidney / nephropathy + systemic / in life …
[35] = systemic / in life observation / mortality / mortality + systemic / pathology microscopic / kidney / degeneration + systemic / pathology …
[36] = systemic / in life observation / clinical signs / defecation (diarrhea) + systemic / in life observation / clinical signs / lethargy + …
[37] = systemic / in life observation / food consumption / food consumption + systemic / organ weight / liver / absolute + systemic / organ weight…
[38] = systemic / in life observation / body weight / body weight + reproductive / reproductive performance / mating / mating
[39] = systemic / in life observation / body weight / body weight + reproductive / reproductive performance / mating / mating + systemic / clinical…
[40] = group: offspring, systemic / in life observation / body weight / offspring (pup) weight
[41] = group: parental, systemic / in life observation / body weight / body weight gain
[42] = group: developmental, developmental / developmental malformation / bone / absent + developmental / developmental malformation / bone / fused + developmental / …
[43] = group: maternal, systemic / in life observation / body weight / body weight gain
[44] = group: maternal, systemic / in life observation / body weight / body weight gain + reproductive / reproductive performance / aborted / aborted + reproductive…
[45] = systemic / pathology microscopic / thyroid gland / mineralization
[46] = systemic / pathology microscopic / thyroid gland / mineralization + systemic / in life observation / body weight / body weight + systemic / …
[47] = systemic / in life observation / body weight / body weight + systemic / in life observation / body weight / body weight gain + systemic / in…
[48] = group: developmental, developmental / developmental malformation / bone / wavy
[49] = group: maternal, systemic / in life observation / body weight / body weight gain + systemic / in life observation / food consumption / food consumption
[50] = systemic / clinical chemistry / cholesterol / cholesterol + systemic / hematology / erythrocyte (rbc) count differential / erythrocyte (rbc…
[51] = systemic / pathology microscopic / testes / degeneration

CC(N)c1cc(F)ccc1Oc1ccc(Cl)c(Cl)c1 (centres undefined)
LEL [1]: 3 mg/kg/day
LOAEL [1]: > 150 mg/kg/day
NEL [1]: < 3 mg/kg/day
NOAEL [1]: ≥ 150 mg/kg/day
LOAEL [2, 24]: > 100 mg/kg/day
NOAEL [2, 24]: ≥ 100 mg/kg/day
LEL [2, 25]: 3 mg/kg/day
NEL [2, 25]: < 3 mg/kg/day

CN[C@H]1CC[C@@H](c2ccc(Cl)c(Cl)c2)c2ccc(S(N)(=O)=O)cc21
LOAEL [3, 26]: > 160 mg/kg/day
NOAEL [3, 26]: ≥ 160 mg/kg/day
LEL [3, 27]: 40 mg/kg/day
NEL [3, 27]: 20 mg/kg/day
LOAEL [4, 28]: > 320 mg/kg/day
NOAEL [4, 28]: ≥ 320 mg/kg/day
LEL [4, 29]: 40 mg/kg/day
NEL [4, 29]: < 40 mg/kg/day
LEL [5]: 5 mg/kg/day
LOAEL [5]: > 60 mg/kg/day
NEL [5]: < 5 mg/kg/day
NOAEL [5]: ≥ 60 mg/kg/day
NEL ([6]; systemic / in life observation / clinical signs / salivation + systemic / organ weight / liver / absolute): 20 mg/kg/day
LEL [6, 30]: 60 mg/kg/day
LOAEL [6, 30]: > 60 mg/kg/day
NOAEL [6, 30]: ≥ 60 mg/kg/day

COc1ccc(C(=O)Nc2nc3ccccc3c(NCc3ccccc3)c2C#N)cc1
LOAEL [7, 31]: 1500 mg/kg/day
NOAEL [7, 31]: 750 mg/kg/day
LEL [7, 32]: 300 mg/kg/day
NEL [7, 32]: < 300 mg/kg/day

Nc1cc([N+](=O)[O-])ccc1O [2-Amino-4-nitrophenol]
LOAEL [8, 33]: 125 mg/kg/day
NOAEL [8, 33]: < 125 mg/kg/day
LEL [8, 34]: 125 mg/kg/day
NEL [8, 34]: < 125 mg/kg/day
LEL ([9]; systemic / in life observation / mortality / mortality): 500 mg/kg/day
LOAEL [9, 35]: > 1000 mg/kg/day
NEL [9, 35]: 250 mg/kg/day
NOAEL [9, 35]: ≥ 1000 mg/kg/day
LOAEL [10, 36]: > 1000 mg/kg/day
NEL [10, 36]: 125 mg/kg/day
NOAEL [10, 36]: ≥ 1000 mg/kg/day
LEL ([10]; systemic / organ weight / liver / absolute): 250 mg/kg/day

ClC1=C(Cl)C2(Cl)C3C(Cl)C(Cl)CC3C1(Cl)C2(Cl)Cl (centres undefined) [Chlordane, technical grade]
LEL [11, 37]: 0.15 mg/kg/day
NEL [11, 37]: < 0.15 mg/kg/day
NOAEL ([11]; systemic / pathology microscopic / liver / degeneration + systemic / in life observation / food consumption / food consumption + systemic / …): 0.15 mg/kg/day
LOAEL ([11]; systemic / pathology microscopic / liver / degeneration + systemic / pathology microscopic / liver / necrosis): 0.75 mg/kg/day
LEL [12]: 0.045 mg/kg/day
LOAEL [12]: 0.045 mg/kg/day
NEL [12]: < 0.045 mg/kg/day
NOAEL [12]: < 0.045 mg/kg/day
LEL [13, 38]: 0.1 mg/kg/day
NEL [13, 38]: < 0.1 mg/kg/day
LOAEL [13, 39]: > 5 mg/kg/day
NOAEL [13, 39]: ≥ 5 mg/kg/day

O=[N+]([O-])/N=C1\NCCN1Cc1ccc(Cl)nc1 [Imidacloprid]
LEL [14]: 72 mg/kg/day
LOAEL [14]: > 72 mg/kg/day
NEL [14]: 15 mg/kg/day
NOAEL [14]: ≥ 72 mg/kg/day
LEL [15, 40]: 47.3 mg/kg/day
LOAEL [15, 40]: 47.3 mg/kg/day
NEL [15, 40]: 16.5 mg/kg/day
NOAEL [15, 40]: 16.5 mg/kg/day
LEL [15, 41]: 52.3 mg/kg/day
LOAEL [15, 41]: 52.3 mg/kg/day
NEL [15, 41]: 18.9 mg/kg/day
NOAEL [15, 41]: 18.9 mg/kg/day
LEL [16, 42]: 72 mg/kg/day
LOAEL [16, 42]: 72 mg/kg/day
NEL [16, 42]: 24 mg/kg/day
NOAEL [16, 42]: 24 mg/kg/day
LEL [16, 43]: 24 mg/kg/day
NEL [16, 44]: 8 mg/kg/day
NOAEL [16, 44]: 24 mg/kg/day
LOAEL ([16]; group: maternal, systemic / in life observation / body weight / body weight gain + reproductive / reproductive performance / postimplantation loss / …): 72 mg/kg/day
LEL [17, 45]: 16.9 mg/kg/day
LOAEL [17, 45]: 16.9 mg/kg/day
NEL [17, 46]: 5.7 mg/kg/day
NOAEL [17, 46]: 5.7 mg/kg/day
LOAEL [18, 47]: 414 mg/kg/day
NEL [18, 47]: 66 mg/kg/day
NOAEL [18, 47]: 208 mg/kg/day
LEL ([18]; systemic / in life observation / body weight / body weight gain): 208 mg/kg/day
LEL [19, 48]: 100 mg/kg/day
LOAEL [19, 48]: 100 mg/kg/day
NEL [19, 48]: 30 mg/kg/day
NOAEL [19, 48]: 30 mg/kg/day
LEL [19, 43]: 30 mg/kg/day
LOAEL [19, 43]: 30 mg/kg/day
NEL [19, 49]: 10 mg/kg/day
NOAEL [19, 49]: 10 mg/kg/day

NC(=O)c1nc(-c2cccc(-c3cc(F)ccc3OCC(F)(F)C(F)(F)F)c2)n[n-]1.O.[K+] [MK-274]
LEL [20]: 240 mg/kg/day
LOAEL [20]: > 400 mg/kg/day
NEL [20]: < 240 mg/kg/day
NOAEL [20]: ≥ 400 mg/kg/day
LOAEL [21, 50]: > 450 mg/kg/day
NOAEL [21, 50]: ≥ 450 mg/kg/day
LEL [21, 51]: 10 mg/kg/day
NEL [21, 51]: < 10 mg/kg/day

CCN(CC)C(=O)C(C)Oc1cccc2ccccc12 (centres undefined) [Napropamide]
LEL [22]: 50 mg/kg/day
LOAEL [22]: 50 mg/kg/day
NEL [22]: 25 mg/kg/day
NOAEL [22]: 25 mg/kg/day
LEL [23]: 100 mg/kg/day
LOAEL [23]: 100 mg/kg/day
NEL [23]: 40 mg/kg/day
NOAEL [23]: 40 mg/kg/day
